Experimental data as given in patent publication US20210100786A1, “Pharmaceutical Formulations” (CIPLA LIMITED, priority 2018, published 2021).

How the values were obtained:
Caco-2 cells [1] = settings: cited from earlier work
Caco-2 cells [2] = system: Caco-2 cells

Structure (SMILES): COc1nc2ccc(Br)cc2cc1[C@@H](c1ccccc1)[C@@](O)(CCN(C)C)c1cccc2ccccc12 [Bedaquiline]
- P-gp substrate status (Caco-2 cells [1]): known P-gp substrate
- absorption (Caco-2 cells [2]): increased
- efflux ratio (Papp B-A/Papp A-B) (Caco-2 cells [2]): decreasing the efflux ratio
